From US7939510B2, “Di(uridine 5′-)tetraphosphate and salts thereof” (priority 1997, dated 2011)
Like-named read-outs stand apart in the source and are kept apart here.

Experiments:
rabbits = assay: Local ocular tolerance and subchronic ocular toxicity study in rabbits; format: in vivo; conditions: multiple daily administrations over six weeks
Description: (§1) A study in rabbits examined local ocular tolerance and subchronic ocular toxicity after multiple daily administrations over a six-week period.
(§2) A study in rabbits examines local ocular tolerance and subchronic ocular toxicity after multiple daily administrations over a six-week period.

[1] = Nonclinical toxicologic profile (overall conclusion from the toxicity studies)
Description: as §1, §2

[2] = format: physicochemical
Description: The maximum solubility in water was thus determined to be ca. 900 mg/mL. […] The tetrasodium salt of P^1,P^4-di(uridine 5′-) tetraphosphate was thus determined to have an excellent solubility and stability profile suitable for pharmaceutical applications. […]

rat = assay: Single-dose acute inhalation toxicity study in rat; format: in vivo; conditions: rats
dog = assay: Single-dose acute inhalation toxicity study in dog; format: in vivo; conditions: dogs
[3] = test system: normal healthy male volunteers; format: in vivo, human
Description: Forty non-smokers and 35 smokers were evaluated in 5 dosing cohorts of 16 volunteers, comprised of 12 receiving a single aerosolized dose of P^1,P^4-di(uridine 5′-) tetraphosphate, tetrasodium salt (20-400 mg) and 4 receiving placebo (normal saline).

dogs = assay: Single-dose acute intravenous toxicity study in dogs; format: in vivo

| Substance | adverse findings in ocular toxicology studies (rabbits; present-tense example) | toxicology profile ([1]; present-tense example) | stability profile [2] | other results |
| --- | --- | --- | --- | --- |
| P^1,P^4-di(uridine 5′-)tetraphosphate, tetralithium salt | No adverse findings | excellent toxicology profile with a wide safety margin | excellent |  |
| P^1,P^4-di(uridine 5′-)tetraphosphate, monopotassiumtrilithium salt | No adverse findings | excellent toxicology profile with a wide safety margin | excellent |  |
| P^1,P^4-di(uridine 5′-)tetraphosphate, monolithiummonopotassiumdisodium salt |  |  | excellent |  |
| P^1,P^4-di(uridine 5′-)tetraphosphate, tetrapotassium salt | No adverse findings | excellent toxicology profile with a wide safety margin | excellent |  |
| P^1,P^4-di(uridine 5′-)tetraphosphate, disodiumdipotassium salt | No adverse findings | excellent toxicology profile with a wide safety margin | excellent |  |
| P^1,P^4-di(uridine 5′-)tetraphosphate, tetrasodium salt |  |  | excellent | acute toxicity (rat): low degree of acute toxicity; adverse findings in ocular toxicology studies (rabbits): No adverse findings; acute toxicity (dog): low degree of acute toxicity; toxicology profile [1]: excellent toxicology profile with a wide safety margin; degradation [2]: less than 1.5%; maximum solubility in water [2]: ca. 900 mg/mL; solubility profile [2]: excellent; stimulating the expectoration of sputum compared to placebo ([3]; conclusion): effective; safety and tolerability ([3]; in vivo): safe and well-tolerated; effect to induce the expectoration of sputum ([3]; non-smokers): observed; stimulation of sputum expectoration over the next hour of sputum collection ([3]; smokers): sustained; acute toxicity (dogs): low degree of acute toxicity |
